ChEMBL document CHEMBL3301562, “MMV Box screening against Plasmodium falciparum protein kinases and aminoacyl tRNA synthetases”

Columns and labels:
Format in all cases: functional
[1] = target: T1, Cdk-related protein kinase 6 (Plasmodium falciparum, UniProt O77239); assay: Final concentrations were 1.5 uM ATP, 5 mM MnCl2, and 15 ug/ml PK6 in a buffer of 100 mM Tris-HCl (pH 7.5). 50 ug/mL MBP was provided as the substrate; 10 uM staurosporine was used as a control inhibitor. Incubation time was 3 hours and 40 minutes.The catalytic activity of each kinase was considered proportional to ATP consumed, as determined from measurements of residual [ATP] with the luciferase-based reagent Kinase-Glo (Promega) following incubation. Luminescence (proportional to residual [ATP]) was measured on the plate readers FLx800 (BioTek Instruments, Winooski, VT, USA) and MicroBeta2.
T1 sequence (O77239 whole entry): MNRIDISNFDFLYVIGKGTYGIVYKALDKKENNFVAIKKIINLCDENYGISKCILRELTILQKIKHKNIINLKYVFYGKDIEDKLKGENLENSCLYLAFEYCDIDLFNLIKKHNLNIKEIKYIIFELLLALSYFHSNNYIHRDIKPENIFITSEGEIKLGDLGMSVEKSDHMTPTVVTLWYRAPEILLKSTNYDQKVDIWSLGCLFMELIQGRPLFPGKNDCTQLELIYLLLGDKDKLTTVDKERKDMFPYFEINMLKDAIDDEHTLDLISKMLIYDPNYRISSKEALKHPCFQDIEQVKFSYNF

[2] = target: T2, Putative uncharacterized protein pk7 (Plasmodium falciparum, UniProt O96214); assay: Final concentrations were 1 uM ATP, 2 mM DTT, 20 mM MgCl2, 2 mM MnCl2, 0.01% BSA, and 6 ug/ml PK7, in a buffer of 20 mM Tris-HCl (pH 7.5). The enzyme itself was the only substrate present (since autophosphorylation occurs); 100 uM 1NA-PP1 was used as a control inhibitor. Incubation time was 3 hours.
T2 sequence (O96214 whole entry): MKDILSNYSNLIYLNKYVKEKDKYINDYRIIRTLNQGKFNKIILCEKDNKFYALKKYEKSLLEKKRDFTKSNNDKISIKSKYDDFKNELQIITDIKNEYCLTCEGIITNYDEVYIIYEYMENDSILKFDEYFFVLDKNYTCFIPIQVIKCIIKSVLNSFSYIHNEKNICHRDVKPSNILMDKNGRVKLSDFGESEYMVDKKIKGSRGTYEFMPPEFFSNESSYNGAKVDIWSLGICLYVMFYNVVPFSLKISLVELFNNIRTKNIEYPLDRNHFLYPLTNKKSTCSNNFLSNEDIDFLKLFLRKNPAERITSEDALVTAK

[3] = target: T3, Mitogen-activated protein kinase (Plasmodium falciparum, UniProt Q25917); assay: Final concentrations were 1 uM ATP, 0.5 mM DTT, 1 mM MgCl2, 0.5 mg/mL BSA, and 10 ug/ml MAP2 in a buffer of 50 mM HEPES (pH 7.0). 0.5 mg/mL histone III-S served as the substrate (13); 100 uM AMP-PNP, an ATP analog, was used as a control inhibitor. Incubation time was 4 hours.
T3 sequence (Q25917 whole entry): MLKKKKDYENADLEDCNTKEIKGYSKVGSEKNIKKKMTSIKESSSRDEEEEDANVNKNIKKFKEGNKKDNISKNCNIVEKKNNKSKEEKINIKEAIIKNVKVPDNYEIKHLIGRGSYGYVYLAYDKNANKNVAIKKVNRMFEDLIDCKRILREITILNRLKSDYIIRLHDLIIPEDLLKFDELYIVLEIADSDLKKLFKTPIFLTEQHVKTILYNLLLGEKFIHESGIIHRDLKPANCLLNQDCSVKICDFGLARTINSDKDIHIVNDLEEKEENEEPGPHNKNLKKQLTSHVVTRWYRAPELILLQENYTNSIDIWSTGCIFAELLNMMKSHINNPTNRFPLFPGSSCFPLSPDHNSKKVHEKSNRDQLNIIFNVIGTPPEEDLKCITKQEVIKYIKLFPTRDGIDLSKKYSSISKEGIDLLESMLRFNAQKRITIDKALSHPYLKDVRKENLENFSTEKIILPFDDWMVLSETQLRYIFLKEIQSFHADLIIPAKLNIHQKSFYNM

[4] = target: Calcium-dependent protein kinase 1 (Plasmodium falciparum, UniProt P62344); assay: MMV: CDPK1 Protein kinase inhibition assay using recombinant PfCDPK1, syntide 2 peptide substrate, ATP and KinaseGlo to measure % inhibition at 1 uM MMV box compound.
Calcium-dependent protein kinase 1, sequence (P62344 whole entry): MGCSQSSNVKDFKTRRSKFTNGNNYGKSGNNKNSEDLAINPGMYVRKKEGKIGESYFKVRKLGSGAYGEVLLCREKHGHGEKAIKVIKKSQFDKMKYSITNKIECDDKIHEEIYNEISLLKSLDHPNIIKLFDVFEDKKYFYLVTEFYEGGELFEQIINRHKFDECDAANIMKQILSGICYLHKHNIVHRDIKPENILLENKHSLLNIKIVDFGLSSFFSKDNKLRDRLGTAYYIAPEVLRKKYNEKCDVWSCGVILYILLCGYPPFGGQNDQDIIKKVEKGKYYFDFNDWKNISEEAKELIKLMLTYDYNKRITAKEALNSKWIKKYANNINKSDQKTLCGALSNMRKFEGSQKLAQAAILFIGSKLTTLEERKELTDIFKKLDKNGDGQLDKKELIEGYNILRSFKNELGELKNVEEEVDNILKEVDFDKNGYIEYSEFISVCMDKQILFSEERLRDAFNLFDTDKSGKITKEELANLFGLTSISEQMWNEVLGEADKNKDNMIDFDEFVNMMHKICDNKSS

[5] = target: T4, Calcium-dependent protein kinase 4 (Plasmodium falciparum (isolate 3D7), UniProt Q8IBS5); assay: MMV: CDPK4 Protein kinase inhibition assay using recombinant PfCDPK4, syntide2 peptide substrate, ATP and KinaseGlo to measure % inhibition at 1 uM MMV box compound.
T4 sequence (Q8IBS5 whole entry): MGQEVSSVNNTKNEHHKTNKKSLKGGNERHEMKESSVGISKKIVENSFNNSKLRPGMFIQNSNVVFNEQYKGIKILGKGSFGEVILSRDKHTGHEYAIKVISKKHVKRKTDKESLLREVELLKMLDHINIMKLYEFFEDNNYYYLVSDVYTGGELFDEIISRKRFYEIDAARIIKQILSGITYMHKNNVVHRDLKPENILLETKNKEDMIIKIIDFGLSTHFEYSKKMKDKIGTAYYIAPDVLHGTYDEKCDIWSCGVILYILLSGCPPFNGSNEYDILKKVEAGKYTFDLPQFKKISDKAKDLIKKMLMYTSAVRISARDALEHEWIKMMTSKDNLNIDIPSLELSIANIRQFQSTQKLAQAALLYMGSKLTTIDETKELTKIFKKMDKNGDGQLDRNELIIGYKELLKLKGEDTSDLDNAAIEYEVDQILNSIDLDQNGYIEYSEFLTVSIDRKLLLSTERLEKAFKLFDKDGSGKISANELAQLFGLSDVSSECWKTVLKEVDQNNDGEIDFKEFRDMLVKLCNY

Proline--tRNA ligase = target: T5, Proline--tRNA ligase (Plasmodium falciparum (isolate 3D7), UniProt Q8I5R7); assay: MMV: ProRS recombinant Plasmodium falciparum Prolyl-tRNA-synthetase, assay with yeast tRNA, ATP, and proline and 3 uM MMV malaria box compound, assay read out with kinase glo as % inhibition.
T5 sequence (Q8I5R7 whole entry): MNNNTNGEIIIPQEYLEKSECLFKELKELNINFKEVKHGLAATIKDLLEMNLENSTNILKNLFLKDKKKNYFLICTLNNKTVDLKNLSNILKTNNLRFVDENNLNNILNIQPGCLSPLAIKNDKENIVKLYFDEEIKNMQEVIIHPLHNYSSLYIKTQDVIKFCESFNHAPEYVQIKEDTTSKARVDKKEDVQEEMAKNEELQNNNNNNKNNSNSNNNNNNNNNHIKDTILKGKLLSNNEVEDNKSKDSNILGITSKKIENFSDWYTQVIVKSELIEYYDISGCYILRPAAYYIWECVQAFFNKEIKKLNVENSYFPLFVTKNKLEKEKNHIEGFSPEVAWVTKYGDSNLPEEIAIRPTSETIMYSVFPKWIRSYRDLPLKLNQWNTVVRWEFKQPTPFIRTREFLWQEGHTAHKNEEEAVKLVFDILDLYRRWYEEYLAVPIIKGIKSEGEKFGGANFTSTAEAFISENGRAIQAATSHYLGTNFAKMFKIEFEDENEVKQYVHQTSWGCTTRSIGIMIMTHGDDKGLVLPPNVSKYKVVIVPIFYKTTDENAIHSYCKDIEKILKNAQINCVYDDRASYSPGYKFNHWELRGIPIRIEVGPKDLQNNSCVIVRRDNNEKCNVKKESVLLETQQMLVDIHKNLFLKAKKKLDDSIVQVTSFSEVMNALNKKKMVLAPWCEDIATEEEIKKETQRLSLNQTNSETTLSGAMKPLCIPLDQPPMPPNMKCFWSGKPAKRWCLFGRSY

Lysine--tRNA ligase = Lysine--tRNA ligase (Plasmodium falciparum (isolate 3D7), UniProt Q8IDJ8); assay: MMV: KRS recombinant Plasmodium falciparum Lysyl-tRNA-synthetase, assay with yeast tRNA, ATP, and lysine and 3 uM MMV malaria box compound, assay read out with kinase glo as % inhibition.
Lysine--tRNA ligase, sequence (Q8IDJ8 whole entry): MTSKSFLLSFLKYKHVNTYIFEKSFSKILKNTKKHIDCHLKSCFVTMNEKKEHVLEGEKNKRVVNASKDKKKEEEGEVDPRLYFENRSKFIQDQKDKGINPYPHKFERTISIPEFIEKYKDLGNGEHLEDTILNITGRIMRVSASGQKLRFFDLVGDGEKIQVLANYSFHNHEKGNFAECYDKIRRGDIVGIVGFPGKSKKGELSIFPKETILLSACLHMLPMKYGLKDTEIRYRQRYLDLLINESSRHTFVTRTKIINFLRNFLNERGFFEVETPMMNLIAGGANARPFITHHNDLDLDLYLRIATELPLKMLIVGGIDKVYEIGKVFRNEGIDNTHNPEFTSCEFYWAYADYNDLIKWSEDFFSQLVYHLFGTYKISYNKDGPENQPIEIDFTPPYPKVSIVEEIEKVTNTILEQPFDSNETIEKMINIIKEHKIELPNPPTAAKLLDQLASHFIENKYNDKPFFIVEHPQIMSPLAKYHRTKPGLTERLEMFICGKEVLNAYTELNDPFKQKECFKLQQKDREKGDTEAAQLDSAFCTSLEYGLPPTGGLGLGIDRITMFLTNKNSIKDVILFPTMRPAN

Row | SMILES | IC50 [1] [µM] | IC50 [2] [µM] | IC50 [3] [µM] | IC50 [4] [µM] | IC50 [5] [µM] | IC50 (Proline--tRNA ligase) [µM] | IC50 (Lysine--tRNA ligase) [µM]
1 | O=C1c2ccccc2-c2nnc(-c3ccc(Br)cc3)cc21 | > 1 | > 1 | > 1 | > 1 | > 1 | > 2.5 | > 2.5
2 | CCOC(=O)C1=C(C)N=c2sc(=Cc3cc(Cl)ccc3O)c(=O)n2C1c1ccc(OC)cc1 (configuration not stated) | > 1 | > 1 | > 1 | > 1 | > 1 | > 2.5 | > 2.5
3 | Cc1nc2ccccc2c(O)c1CC=C(Cl)Cl | > 1 | > 1 | > 1 | > 1 | > 1 | > 2.5 | > 2.5
4 | CC(=O)c1ccc(NC(=O)CSc2nc(-c3ccccc3Cl)ns2)cc1 | > 1 | > 1 | > 1 | > 1 | > 1 | > 2.5 | > 2.5
5 | O=C(NCCCN1CCC(N2CCCCC2)CC1)C1=Cc2cc(Br)ccc2OC1 | > 1 | > 1 | > 1 | > 1 | > 1 | > 2.5 | > 2.5
6 | Cc1ccc(OCCCCCCNCCO)c(C)c1 | > 1 | > 1 | > 1 | > 1 | > 1 | > 2.5 | > 2.5
7 | CCOC(=O)c1cnc2ccc(Cl)cc2c1NCCCN(C)C | > 1 | > 1 | > 1 | > 1 | > 1 | > 2.5 | > 2.5
8 | O=C1c2ccccc2C2=Nc3ccccc3SC(c3cccc(F)c3)C12 (configuration not stated) | > 1 | > 1 | > 1 | > 1 | > 1 | > 2.5 | > 2.5
9 | Cc1ccccc1OCCSc1nc2ccc(NC(=O)c3ccccc3)cc2s1 | > 1 | > 1 | > 1 | > 1 | > 1 | > 2.5 | > 2.5
10 | CC(C)(C)c1ccc(C(=O)Nc2c3c(nn2-c2cccc(Cl)c2)CSC3)cc1 | > 1 | > 1 | > 1 | > 1 | > 1 | > 2.5 | > 2.5
11 | CCCCCCn1c(=N)n(CC(O)COc2cccc(C)c2)c2ccccc21 (configuration not stated) | > 1 | > 1 | > 1 | > 1 | > 1 | > 2.5 | > 2.5
12 | CCOC(=O)C1(Cc2ccccc2)CCN(Cc2cccc(OC)c2O)CC1 | > 1 | > 1 | > 1 | > 1 | > 1 | > 2.5 | > 2.5
13 | Oc1ccc(C(=C(Cl)Cl)c2ccc(O)cc2)cc1 | > 1 | > 1 | > 1 | > 1 | > 1 | > 2.5 | > 2.5
14 | CC(C)(C)c1ccc2c(c1)CN(Cc1ccc(Cl)cc1)CO2 | > 1 | > 1 | > 1 | > 1 | > 1 | > 2.5 | > 2.5
15 | COc1ccc(OC)c(C2C3=C(CC(C)(C)CC3=O)N(c3ccc(Cl)c(Cl)c3)C3=C2C(=O)CC(C)(C)C3)c1 | > 1 | > 1 | > 1 | > 1 | > 1 | > 2.5 | > 2.5
16 | OC1CCCCC1C1(NC(=S)Nc2ccccc2)CCCCC1 (configuration not stated) | > 1 | > 1 | > 1 | > 1 | > 1 | > 2.5 | > 2.5
17 | OC1=C2C(=Nc3ccccc3SC2c2ccc(Br)cc2)c2ccccc21 (configuration not stated) | > 1 | > 1 | > 1 | > 1 | > 1 | > 2.5 | > 2.5
18 | COc1ccc(C)c2sc(N(Cc3cccnc3)C(=O)c3ccc(C#N)cc3)nc12 | > 1 | > 1 | > 1 | > 1 | > 1 | > 2.5 | > 2.5
19 | CCCCCn1c(=N)n(CC(O)COc2cccc(C)c2)c2ccccc21 (configuration not stated) | > 1 | > 1 | > 1 | > 1 | > 1 | > 2.5 | > 2.5
20 | CCN1CCN(c2c(C(=O)c3ccccc3)cnc3cc(OC)c(OC)cc23)CC1 | > 1 | > 1 | > 1 | > 1 | > 1 | > 2.5 | > 2.5
21 | Cc1ccc(S(=O)(=O)c2c(COC(=O)c3cccc(C)c3)c(-c3ccccc3)nn2C)cc1 | > 1 | > 1 | > 1 | > 1 | > 1 | > 2.5 | > 2.5
